Measurements reported in PubChem BioAssay (NCI).
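Method: 48-hour compound exposure of cells in 96-well plates, five concentrations, linear interpolation of endpoints. At the GI50, growth is halved. TGI denotes the concentration required for complete inhibition of growth.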

Legend:
Test in all cases: growth of human tumour cells (NCI), 48 h
[1] = test system: 786-0 renal
[2] = test system: A498 renal
[3] = test system: A549 NSCLC
[4] = test system: ACHN renal
[5] = test system: BT-549 breast
[6] = test system: CAKI-1 renal
[7] = test system: CCRF-CEM leukemia
[8] = test system: DU-145 prostate
[9] = test system: EKVX NSCLC
[10] = test system: HCC-2998 colon
[11] = test system: HCT-116 colon
[12] = test system: HCT-15 colon
[13] = test system: HL-60(TB) leukemia
[14] = test system: HOP-62 NSCLC
[15] = test system: HOP-92 NSCLC
[16] = test system: HS 578T breast
[17] = test system: IGROV1 ovarian
[18] = test system: K-562 leukemia
[19] = test system: KM12 colon
[20] = test system: LOX IMVI melanoma
[21] = test system: M14 melanoma
[22] = test system: MALME-3M melanoma
[23] = test system: MCF7 breast
[24] = test system: MDA-MB-231 breast
[25] = test system: MDA-MB-435
[26] = test system: MOLT-4 leukemia
[27] = test system: NCI-H226 lung
[28] = test system: NCI-H23 lung
[29] = test system: NCI-H460 lung
[30] = test system: NCI-H522 lung
[31] = test system: NCI/ADR-RES ovarian
[32] = test system: OVCAR-3 ovarian
[33] = test system: OVCAR-4 ovarian
[34] = test system: OVCAR-5 ovarian
[35] = test system: OVCAR-8 ovarian
[36] = test system: PC-3 prostate
[37] = test system: RPMI-8226 leukemia
[38] = test system: RXF 393 renal
[39] = test system: SF-268 CNS
[40] = test system: SF-295 CNS
[41] = test system: SF-539 CNS
[42] = test system: SK-MEL-2 melanoma
[43] = test system: SK-MEL-5 melanoma
[44] = test system: SN12C renal
[45] = test system: SR leukemia
[46] = test system: SW-620 colon
[47] = test system: TK-10 renal
[48] = test system: U251 CNS
[49] = test system: UACC-257 melanoma
[50] = test system: UACC-62 melanoma
[51] = test system: UO-31 renal
[52] = test system: COLO 205 colon
[53] = test system: HT29 colon
[54] = test system: SK-MEL-28 melanoma
[55] = test system: SK-OV-3 ovarian
[56] = test system: SNB-75 CNS
[57] = test system: T-47D breast

In the case of `O=C1/C(=C/c2ccc(Cl)cc2Cl)N=C(c2ccccc2)N1Cc1ccco1`, the GI50 [1] is reported as 19.8 µM, the TGI [1] is reported as 41.2 µM and the GI50 [2] is reported as 22.3 µM. The TGI [2] was 61 µM, the GI50 [3] was 27.1 µM and the TGI [3] was 71 µM. The GI50 [4] was 11.8 µM, the TGI [4] was 28 µM and the GI50 [5] was 27.4 µM. For the same compound, the TGI [5] was 87.9 µM, the GI50 [6] was 30.2 µM and the TGI [6] was 50.6 µM. It also gave a GI50 [7] of 3.58 µM, a TGI [7] of 7.6 µM and a GI50 [8] of 21.1 µM. It also gave a TGI [8] of 51 µM, a GI50 [9] of 27.3 µM and a TGI [9] of 75 µM. The GI50 [10] was 26.7 µM, the TGI [10] was 76.1 µM and the GI50 [11] was 20.7 µM. For the same compound, the TGI [11] was 47.1 µM, the GI50 [12] was 37.7 µM and the TGI [12] was greater than 100 µM. For the same compound, the GI50 [13] was 18.3 µM, the TGI [13] was 52.3 µM and the GI50 [14] was 18.4 µM. It also gave a TGI [14] of 38.9 µM, a GI50 [15] of 20.7 µM and a TGI [15] of 47.4 µM. The GI50 [16] was 22.7 µM, the TGI [16] was 65 µM and the GI50 [17] was 18.6 µM. It also gave a TGI [17] of 51 µM, a GI50 [18] of 41.1 µM and a TGI [18] greater than 100 µM. For the same compound, the GI50 [19] was 33.7 µM, the TGI [19] was greater than 100 µM and the GI50 [20] was 50.5 µM. For the same compound, the TGI [20] was greater than 100 µM, the GI50 [21] was 29.1 µM and the TGI [21] was greater than 100 µM. The GI50 [22] was 21.2 µM, the TGI [22] was 52.8 µM and the GI50 [23] was 13.9 µM. For the same compound, the TGI [23] was 33.3 µM, the GI50 [24] was 17.6 µM and the TGI [24] was 49.3 µM. It also gave a GI50 [25] of 43.6 µM, a TGI [25] greater than 100 µM and a GI50 [26] of 25.8 µM. The TGI [26] was greater than 100 µM, the GI50 [27] was 23.9 µM and the TGI [27] was 67.6 µM. It also gave a GI50 [28] of 26.2 µM, a TGI [28] of 81.6 µM and a GI50 [29] of 26.6 µM. It also gave a TGI [29] greater than 100 µM, a GI50 [30] of 18.9 µM and a TGI [30] of 48.4 µM. For the same compound, the GI50 [31] was 25.5 µM, the TGI [31] was 57.9 µM and the GI50 [32] was 22.6 µM. The TGI [32] was 45.5 µM, the GI50 [33] was 21.2 µM and the TGI [33] was 50 µM. For the same compound, the GI50 [34] was 34.5 µM, the TGI [34] was greater than 100 µM and the GI50 [35] was 20.5 µM. The TGI [35] was 48.4 µM, the GI50 [36] was 30.8 µM and the TGI [36] was 93.9 µM. For the same compound, the GI50 [37] was 23.8 µM, the TGI [37] was 92 µM and the GI50 [38] was 22.6 µM. The TGI [38] was 51.8 µM, the GI50 [39] was 20.2 µM and the TGI [39] was 49.5 µM. The GI50 [40] was 22.2 µM, the TGI [40] was 45.9 µM and the GI50 [41] was 23.7 µM. It also gave a TGI [41] of 55.6 µM, a GI50 [42] of 15.8 µM and a TGI [42] of 48.5 µM. For the same compound, the GI50 [43] was 15.8 µM, the TGI [43] was 80.9 µM and the GI50 [44] was 18.7 µM. For the same compound, the TGI [44] was 36.1 µM, the GI50 [45] was greater than 100 µM and the TGI [45] was greater than 100 µM. For the same compound, the GI50 [46] was 46 µM, the TGI [46] was greater than 100 µM and the GI50 [47] was 22.1 µM. The TGI [47] was 49.3 µM, the GI50 [48] was 20.5 µM and the TGI [48] was 40.5 µM. It also gave a GI50 [49] of 36.5 µM, a TGI [49] greater than 100 µM and a GI50 [50] of 18.1 µM. The TGI [50] was 41.6 µM, the GI50 [51] was 23.9 µM and the TGI [51] was greater than 100 µM.

`COc1ccc(-n2c(=O)c3[nH]cnc3n(-c3ccc(OC)cc3)c2=S)cc1` gave a TGI [1] greater than 100 µM, a TGI [2] greater than 100 µM and a TGI [3] greater than 100 µM. For the same compound, the TGI [4] was greater than 100 µM, the TGI [5] was greater than 100 µM and the TGI [6] was greater than 100 µM. For the same compound, the TGI [7] was greater than 100 µM, the TGI [52] was greater than 100 µM and the TGI [8] was greater than 100 µM. It also gave a TGI [9] greater than 100 µM, a TGI [10] greater than 100 µM and a TGI [11] greater than 100 µM. The TGI [12] was greater than 100 µM, the TGI [13] was greater than 100 µM and the TGI [14] was greater than 100 µM. For the same compound, the TGI [15] was greater than 100 µM, the TGI [53] was greater than 100 µM and the TGI [17] was greater than 100 µM. It also gave a TGI [18] greater than 100 µM, a TGI [19] greater than 100 µM and a TGI [20] greater than 100 µM. For the same compound, the TGI [21] was greater than 100 µM, the TGI [23] was greater than 100 µM and the TGI [24] was greater than 100 µM. For the same compound, the TGI [25] was greater than 100 µM, the TGI [26] was greater than 100 µM and the TGI [27] was greater than 100 µM. The TGI [28] was greater than 100 µM, the TGI [29] was greater than 100 µM and the TGI [30] was greater than 100 µM. It also gave a TGI [31] greater than 100 µM, a TGI [32] greater than 100 µM and a TGI [33] greater than 100 µM. The TGI [34] was greater than 100 µM, the TGI [35] was greater than 100 µM and the TGI [36] was greater than 100 µM. It also gave a TGI [37] greater than 100 µM, a TGI [38] greater than 100 µM and a TGI [39] greater than 100 µM. For the same compound, the TGI [40] was greater than 100 µM, the TGI [41] was greater than 100 µM and the TGI [42] was greater than 100 µM. The TGI [54] was greater than 100 µM, the TGI [43] was greater than 100 µM and the TGI [55] was greater than 100 µM. The TGI [44] was greater than 100 µM, the TGI [56] was greater than 100 µM and the TGI [45] was greater than 100 µM. The TGI [46] was greater than 100 µM, the TGI [57] was greater than 100 µM and the TGI [47] was greater than 100 µM. The TGI [48] was greater than 100 µM, the TGI [49] was greater than 100 µM and the TGI [50] was greater than 100 µM. For the same compound, the TGI [51] was greater than 100 µM.
